Data on three compounds can be found in publication PMC10002984, “Dual PTP1B/TC-PTP Inhibitors: Biological Evaluation of 3-(Hydroxymethyl)cinnoline-4(1H)-Ones” (International Journal of Molecular Sciences, 2023).

Each structure is given as a SMILES string. Marks after values point to notes of the source that are not given here.

In experiment [1] the test system is PTP1B and TC-PTP in the hypothalamic arcuate nucleus. More on the design: method as in PMID 30525586. Conditions: administered to mice; cited from earlier work.
The target of experiment [2] is T1, recombinant human PTP1B protein (Homo sapiens, UniProt P18031).
T1 construct: purchased Abcam ab51277
T1 sequence (P18031 1-321 limits assumed): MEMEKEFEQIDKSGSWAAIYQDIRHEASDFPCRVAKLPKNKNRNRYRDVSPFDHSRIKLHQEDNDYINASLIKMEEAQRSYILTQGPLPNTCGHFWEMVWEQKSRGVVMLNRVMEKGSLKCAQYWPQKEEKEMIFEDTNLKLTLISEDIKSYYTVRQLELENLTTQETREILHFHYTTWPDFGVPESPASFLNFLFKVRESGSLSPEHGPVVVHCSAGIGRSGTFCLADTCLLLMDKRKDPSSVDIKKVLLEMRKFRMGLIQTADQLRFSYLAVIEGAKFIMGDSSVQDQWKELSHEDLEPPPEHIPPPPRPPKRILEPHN
As to the kind of experiment: Phosphatase activity assay with DiFMUP, PTP1B inhibition. It is filed as biochemical. On the procedure: (§1) The measurement of the activity of the phosphatases PTP1B and TC-PTP and their inhibition was carried out using 6,8-difluoro-4methylumbelliferyl phosphate (DiFMUP), as previously described. The stock solution of recombinant human PTP1B protein (#ab51277, Abcam, Cambridge, UK), at a concentration of 1 µg/µL, was prepared in 25 mM Tris–HCl (pH 7.5), 20% glycerol, 2 mM β-mercaptoethanol, 1 mm EDTA, and 1 mM DTT, and stored at −20 °C. Active human recombinant TC-PTP protein was purchased from Sigma-Aldrich (#SRP0218, Saint Louis, MO, USA) as the aqueous buffer solution at a concentration of 2.9 mg/mL, and aliquots were stored at −80 °C. The fluorogenic substrate DiFMUP (#D6567, Molecular Probes, Thermo Fisher Scientific, Waltham, MA, USA) was dissolved at a concentration of 10 mM in N,N-dimethylformamide and stored in aliquots at −20 °C. The 6,8-difluoro-7-hydroxy-4-methylcoumarin (DiFMU, #D6566, Molecular Probes, Thermo Fisher Scientific, Waltham, MA, USA) was used as a reference fluorescent standard. For the IC50 determination, the assay was carried out in black flat bottom 96-well plates using a reaction volume of 100 µL. The phosphatases (PTP1B or TC-PTP) were preincubated with the tested compounds (0.1–80 µM) in 50 mM HEPES (pH 6.9), 100 mM NaCl, 1 mM EDTA, 2 mM DTT, 0.1 mg/mL BSA for 5 min at 37 °C. The following concentrations of the compounds were studied: 0.1, 0.2, 0.5, 1, 2, 5, 10, 20, 40, and 80 μM. The reactions were initiated by the addition of the fluorogenic substrate DiFMUP and diluted in the assay buffer. Progress curves for hydrolysis reaction were obtained with 25 µM of DiFMUP for 80 ng/mL PTP1B, and 35 µM of DiFMUP for 80 ng/mL TC-PTP. Fluorescence excitation of hydrolyzed DiFMUP and the fluorescent standard DiFMU was monitored at 355 nm and emission was detected at 460 nm for 6–10 min at 30 s intervals in a Fluoroskan Ascent FL microplate reader (Thermo Electron Corporation, Vantaa, Finland). Initial velocities of the reactions were used to calculate the IC50 values using GraphPad Prism.
(§2) The data on food intake, body weight, and biochemical parameters in rats, as well as the PCR data, were analyzed using the IBM SPSS Statistics 22 software (“IBM”, Armonk, NY, USA), and the results are presented as mean ± standard error of the mean (M ± SEM). All differences are considered significant at p < 0.05. The calculation of the IC50 values of the studied inhibitors for the initial velocities of enzymatic reactions (PTP1B, TC-PTP) was carried out using the nonlinear regression analysis with GraphPad Prism 8 (“GraphPad Software, Inc.”, Boston, MA, USA). The statistical analysis was carried out using the Wilcoxon test for pairwise comparison and Dunn’s test for multiple comparisons.

Experiment [3] concerns the target T2, human recombinant TC-PTP protein (Homo sapiens, UniProt P17706).
T2 construct: purchased Sigma-Aldrich SRP0218
T2 sequence (P17706 1-415): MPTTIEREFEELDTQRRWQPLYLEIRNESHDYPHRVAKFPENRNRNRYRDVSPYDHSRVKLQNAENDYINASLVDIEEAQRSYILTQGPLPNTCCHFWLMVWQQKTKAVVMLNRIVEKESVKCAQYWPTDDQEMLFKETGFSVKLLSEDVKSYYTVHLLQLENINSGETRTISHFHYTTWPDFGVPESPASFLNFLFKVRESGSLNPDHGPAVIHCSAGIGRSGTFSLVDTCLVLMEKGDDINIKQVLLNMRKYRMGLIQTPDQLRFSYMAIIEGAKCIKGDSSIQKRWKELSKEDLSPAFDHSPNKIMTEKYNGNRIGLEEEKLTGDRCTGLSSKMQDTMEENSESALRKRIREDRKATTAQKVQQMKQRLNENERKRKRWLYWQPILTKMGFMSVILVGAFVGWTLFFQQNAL
In words: Phosphatase activity assay with DiFMUP, TC-PTP inhibition. It is filed as biochemical. The note with it: DiFMUP 35 µM, 80 ng/mL TC-PTP, compounds 0.1–80 μM; M ± SEM (n = 24); read-out: IC50 for the inhibitory effect on TC-PTP activity. The procedure:
as §1, §2

The test system of another experiment is Shp1 gene. As to the kind of experiment: Gene expression in the liver of obese rats (qPCR), Shp1 gene. It is filed as in vivo, rat. The note with it: five-day treatment. On the procedure:
(§3) Further, six groups were formed: control (Con, n = 10), obesity (Ob, n = 10), obese rats with five-day treatment with compounds 1 (Ob + 1, n = 5), 2 (Ob + 2, n = 5), 3 (Ob + 3, n = 10), and 4 (Ob + 4, n = 10). All compounds were administered in DMSO (300 µL) at a daily dose of 7 mg/kg (1 and 2), 8 mg/kg (3), and 10 mg/kg (4) (i.p.), based on the results of the preliminary experiments. The used doses of compounds 1–4, in terms of the number of moles of each compound per kg of animal body weight, were equivalent. Control and obese rats received DMSO in the same volumes (300 µL), instead of the tested compounds. During the five days of the experiment, all animals were transferred to standard food and had free access to food and drinking water. […] The test was carried out on the morning of the next day after the last (fifth) injection of the compounds or DMSO, after a 10 h fast. The rest of the animals (n = 5 in each group) were anesthetized and decapitated on the last day of the experiment. The blood and liver samples were taken to measure blood glucose and hormone levels and gene expression in the liver.
The total RNA was isolated from the liver samples of rats using the “ExtractRNA Reagent” (Evrogen, Moscow, Russia), and the samples containing 1 μg of RNA were transcribed to cDNA using the random oligodeoxynucleotide primers and the “MMLV RT kit” (Evrogen, Russia). The amplification procedure was carried out in the mixture containing 10 ng of reverse transcribed product, 0.4 μM of the forward and reverse primers, and the “qPCRmix-HS SYBR + LowROX kit” (Evrogen, Russia). The amplified signals were detected using the “Applied Biosystems® 7500 Real-Time PCR System” (Life Technologies, Carlsbad, CA, USA, Thermo Fisher Scientific Inc., USA). The primers that were used to assess the expression of genes encoding the phosphatase PTP1B, TC-PTP, and SHP1 and the insulin and leptin receptors are presented in Table 4. The obtained data were calculated with the delta–delta Ct method and expressed as a fold expression, relative to the corresponding control. The expression of the gene encoding 18S RNA was used as an endogenous control.

Experiment [4] deals with male rats with HFD-induced obesity. In words: Blood glucose, insulin and leptin levels and insulin resistance index in obese rats. It is filed as in vivo, male Wistar rats. The procedure: as §3
The glucose levels in the blood obtained from the tail vein were measured using a glucometer (Life Scan Johnson & Johnson, Denmark) and the test strips “One Touch Ultra” (USA). The levels of insulin and leptin in rat serum were estimated with the “Rat Insulin ELISA” (Mercodia AB, Uppsala, Sweden) and “ELISA for Leptin, Rat” (Cloud-Clone Corporation, Houston, TX, USA) kits. The GTT was carried out using a single injection of glucose (2 g/kg, i.p.) after 10 h of fasting, as described earlier. The blood glucose levels were measured before (0 min) and 15, 30, 60, and 120 min after the glucose load.

The test system of a further experiment is diet-induced obese rats. More on the design: method as in doi:10.1134/S0022093022060187. Conditions: cited from earlier work.
A further experiment deals with rat hypothalamic neurons. More on the design: method as in doi:10.1134/S0022093018040038. The note with it: cited from earlier work.
The test system of another experiment is PTP1B. Details: method as in doi:10.1134/S0022093018040038. Conditions: cited from earlier work.
[5] abbreviates: blood, after five-day i.p. treatment, 7 mg/kg (1, 2), 8 mg/kg (3), 10 mg/kg (4), M ± SEM, n = 5.
Where [6] appears, read: blood, before treatment (baseline), M ± SEM, n = 5.

Turning to `CC1=C(O)C(=O)C=C2C1=CC=C1[C@@]2(C)CC[C@@]2(C)[C@@H]3C[C@](C)(C(=O)O)CC[C@]3(C)CC[C@]12C` [Celastrol], in experiment [1], the “activity of both phosphatases (PTP1B, TC-PTP) in the hypothalamic arcuate nucleus” value is reported as “reduced”; the “food intake and body weights” value is reported as “significantly reducing”.
For `O=c1c(CO)n[nH]c2ccc(F)cc12` [Compound 2], the IC50 in experiment [2] (DiFMUP 25 µM, 80 ng/mL PTP1B, compounds 0.1–80 μM, M ± SEM (n = 24), read-out: IC50 for the inhibitory effect on PTP1B activity) was 6.01 ± 0.59 µM. The “selectivity for PTP1B compared to that for TC-PTP” value in experiment [2] (from IC50 values of Table 1) is listed as 5–7 fold. In addition, the IC50 in experiment [3] turned out to be 42.8 ± 9.93 µM. The “expression of the Shp1 gene in the liver” value with Shp1 gene is on record as “increased”. For the same compound, in experiment [4] (setting [5]), the “Glucose, After” value was 5.68 ± 0.09 ^a mM; the “Insulin, After” value is on record as 1.19 ± 0.13 ^a,c ng/mL; the “Leptin, After” value is 2.18 ± 0.22 ^a,c ng/mL. Moreover, in experiment [4] (setting [6]), the “Glucose, Before” value is 5.82 ± 0.22 ^a mM; the “Insulin, Before” value is 1.65 ± 0.17 ^a ng/mL; the “Leptin, Before” value is given as 3.27 ± 0.38 ^a ng/mL. Also, in experiment [4] (product of blood glucose and insulin concentrations, after five-day i.p. treatment, 7 mg/kg (1, 2), 8 mg/kg (3), 10 mg/kg (4)), the “IR (insulin resistance index), After” value is reported as 6.79 ± 0.76 ^a arb.Units. Moreover, the “IR (insulin resistance index), Before” value in experiment [4] (product of blood glucose and insulin concentrations, before treatment (baseline)) is given as 9.68 ± 1.27 ^a arb.Units.
Regarding `CCOC(=O)c1ccc2[nH]nc(CO)c(=O)c2c1` [PI4, ethyl 3-(hydroxymethyl)-4-oxo-1,4-dihydrocinnoline-6-carboxylate], in the experiment on diet-induced obese rats, the “body and fat weights” value is “reduced”; the food intake entry is “suppressed”. For the same compound, the “effect on components of the insulin and leptin signaling pathways (Akt, STAT3)” value in the experiment on rat hypothalamic neurons is given as “stimulating effect”. In addition, the “activity towards PTP1B” value in the experiment with PTP1B is given as “inhibitory activity”.
